Assay: Clearance of PBD drug-linker from conjugation reaction mixture by tangential flow filtration (constant volume diafiltration)
Details: Example 8; without cyclodextrin; Tris, NaCl and 50% propylene glycol; clearance stalling after four diavolumes
Procedure: The diafiltration (DF) process used an 88 cm^2 Ultracel Pellicon 3 cassette from Millipore with a 30 kD molecular weight pore size. The batch volume for the DF was 250 mL, the feed flow rate was 40 ml/min throughout the process, and the retentate valve was adjusted to maintain a trans-membrane pressure of ˜20 psi. The diafiltration buffer addition rate to maintain constant batch volume started at 9 mL/min, but was maintained at 13-14 ml/min through most of the process. Samples were removed after the completion of each diavolume. The concentration of hpb-CD was measured in each sample using an RP HPLC assay with evaporative light scattering detection.
This mixture was brought to 10 w/v % hpb-CD by addition of 25% volume of a 50 w/v % solution of hpb-CD in 50 mM Tris/5 mM EDTA, pH 8.0. […] The concentration of quenched drug-linker was determined in each sample. […] C and C0 are concentrations of the analyte measured, N is the number of diavolumes, and S is the sieving factor, defined as the analyte concentration on the permeate side of the membrane divided by the analyte concentration on the retentate side of the membrane. […]
The TFF process was performed on quenched conjugation reaction mixture using a 30 kD MW cutoff 0.1 m^2 Ultracel Pellicon 3 membrane (Millipore). […] The concentration of quenched PBD drug-linker was determined in each sample. […]

## COc1ccc(C2=CN3C(=O)c4cc(OC)c(OCCCOc5cc6c(cc5OC)C(=O)N5C=C(c7ccc(NC(=O)[C@H](C)NC(=O)[C@@H](NC(=O)CCCCCN8C(=O)CC(SCC(NC(C)=O)C(=O)O)C8=O)C(C)C)cc7)C[C@H]5C=N6)cc4N=C[C@@H]3C2)cc1 (stereo partly shown) [compound 4]
  benzodiazepine drug-related impurity remaining in the mixture: 1.1 µM

— US10391181B2, “Cyclodextrin and antibody-drug conjugate formulations” (priority 2013, dated 2019)
